Experiment: xn = mol fraction of the nth substance listed
Conditions: Liquid, Vibrating tube method

CC(C)=O [acetone] + CCCCCCC
Conditions	mass density [kg/m3]
387.33 K, 39820 kPa, x1 = 0.7024	691.19
387.33 K, 44790 kPa, x1 = 0.7024	696.6
387.33 K, 44850 kPa, x1 = 0.801	707.68
387.33 K, 44910 kPa, x1 = 0.4	722
387.33 K, 44910 kPa, x1 = 0.8992	722
387.33 K, 49890 kPa, x1 = 0.7024	701.8
387.33 K, 54870 kPa, x1 = 0.4	732.14
387.33 K, 54870 kPa, x1 = 0.8992	732.14
387.33 K, 59840 kPa, x1 = 0.492	692.57
387.33 K, 59880 kPa, x1 = 0.7024	711.17
387.33 K, 69820 kPa, x1 = 0.801	731
387.33 K, 69830 kPa, x1 = 0.4	745.58
387.33 K, 69830 kPa, x1 = 0.8992	745.58
387.33 K, 79900 kPa, x1 = 0.801	739.02
387.33 K, 84880 kPa, x1 = 0.801	742.74
387.33 K, 89860 kPa, x1 = 0.801	746.32
387.33 K, 99770 kPa, x1 = 0.7024	741.29
387.33 K, 99830 kPa, x1 = 0.801	753.17
387.33 K, 114840 kPa, x1 = 0.801	762.65
387.33 K, 124840 kPa, x1 = 0.801	768.53
387.33 K, 129850 kPa, x1 = 0.801	771.37
387.34 K, 1350 kPa, x1 = 0.492	613.12
387.34 K, 14820 kPa, x1 = 0.7024	656.98
387.34 K, 19850 kPa, x1 = 0.492	648.12
387.34 K, 24830 kPa, x1 = 0.7024	672.45
387.34 K, 24840 kPa, x1 = 0.492	655.23
387.34 K, 29850 kPa, x1 = 0.492	661.75
387.34 K, 34810 kPa, x1 = 0.7024	685.41
387.34 K, 34840 kPa, x1 = 0.492	667.74
387.34 K, 39870 kPa, x1 = 0.492	673.37
387.34 K, 44860 kPa, x1 = 0.492	678.6
387.34 K, 49850 kPa, x1 = 0.492	683.53
387.34 K, 54850 kPa, x1 = 0.492	688.17
387.34 K, 54880 kPa, x1 = 0.7024	706.61
387.34 K, 64820 kPa, x1 = 0.492	696.75
387.34 K, 64880 kPa, x1 = 0.7024	715.51
387.34 K, 69860 kPa, x1 = 0.7024	719.63
387.34 K, 69930 kPa, x1 = 0.492	700.84
387.34 K, 74840 kPa, x1 = 0.7024	723.6
387.34 K, 74900 kPa, x1 = 0.492	704.65
387.34 K, 79840 kPa, x1 = 0.7024	727.41
387.34 K, 79890 kPa, x1 = 0.492	708.31
387.34 K, 84810 kPa, x1 = 0.7024	731.07
387.34 K, 84890 kPa, x1 = 0.492	711.86
387.34 K, 89810 kPa, x1 = 0.7024	734.6
387.34 K, 89860 kPa, x1 = 0.492	715.24
387.34 K, 94770 kPa, x1 = 0.7024	737.98
387.34 K, 94840 kPa, x1 = 0.492	718.51
387.34 K, 99820 kPa, x1 = 0.492	721.68
387.34 K, 104740 kPa, x1 = 0.7024	744.46
387.34 K, 104800 kPa, x1 = 0.492	724.73
387.34 K, 109720 kPa, x1 = 0.7024	747.55
387.34 K, 109770 kPa, x1 = 0.492	727.68
387.34 K, 114800 kPa, x1 = 0.7024	750.59
387.34 K, 114840 kPa, x1 = 0.492	730.61
387.34 K, 119810 kPa, x1 = 0.7024	753.51
387.34 K, 119850 kPa, x1 = 0.492	733.41
387.34 K, 124820 kPa, x1 = 0.7024	756.37
387.34 K, 124850 kPa, x1 = 0.492	736.14
387.34 K, 129810 kPa, x1 = 0.7024	759.13
387.34 K, 129840 kPa, x1 = 0.492	738.77
397.26 K, 1500 kPa, x1 = 0.801	626.11
397.26 K, 1680 kPa, x1 = 0.4	640.61
397.26 K, 1680 kPa, x1 = 0.8992	640.61
397.26 K, 5010 kPa, x1 = 0.4	649.41
397.26 K, 5010 kPa, x1 = 0.8992	649.41
397.26 K, 14870 kPa, x1 = 0.611	638.19
397.26 K, 14980 kPa, x1 = 0.4	670.71
397.26 K, 14980 kPa, x1 = 0.8992	670.71
397.26 K, 19970 kPa, x1 = 0.4	679.48
397.26 K, 19970 kPa, x1 = 0.8992	679.48
397.26 K, 29940 kPa, x1 = 0.4	694.66
397.26 K, 29940 kPa, x1 = 0.8992	694.66
397.26 K, 44910 kPa, x1 = 0.4	713.39
397.26 K, 44910 kPa, x1 = 0.8992	713.39
397.26 K, 49900 kPa, x1 = 0.4	718.87
397.26 K, 49900 kPa, x1 = 0.8992	718.87
397.26 K, 54890 kPa, x1 = 0.4	724.02
397.26 K, 54890 kPa, x1 = 0.8992	724.02
397.26 K, 59880 kPa, x1 = 0.4	728.9
397.26 K, 59880 kPa, x1 = 0.8992	728.9
397.26 K, 64940 kPa, x1 = 0.611	699.14
397.26 K, 69840 kPa, x1 = 0.4	738.01
397.26 K, 69840 kPa, x1 = 0.8992	738.01
397.26 K, 74820 kPa, x1 = 0.4	742.26
397.26 K, 74820 kPa, x1 = 0.8992	742.26
397.26 K, 84790 kPa, x1 = 0.4	750.27
397.26 K, 84790 kPa, x1 = 0.8992	750.27
397.26 K, 89770 kPa, x1 = 0.4	754.07
397.26 K, 89770 kPa, x1 = 0.8992	754.07
397.26 K, 104690 kPa, x1 = 0.4	764.67
397.26 K, 104690 kPa, x1 = 0.8992	764.67
397.26 K, 109670 kPa, x1 = 0.4	767.98
397.26 K, 109670 kPa, x1 = 0.8992	767.98
397.26 K, 114610 kPa, x1 = 0.4	771.16
397.26 K, 114610 kPa, x1 = 0.8992	771.16
397.26 K, 119600 kPa, x1 = 0.4	774.27
397.26 K, 119600 kPa, x1 = 0.8992	774.27
397.27 K, 1520 kPa, x1 = 0.611	608
397.27 K, 4850 kPa, x1 = 0.801	635.17
397.27 K, 4860 kPa, x1 = 0.611	616.98
397.27 K, 9850 kPa, x1 = 0.801	646.73
397.27 K, 9870 kPa, x1 = 0.611	628.41
397.27 K, 10000 kPa, x1 = 0.4	660.81
397.27 K, 10000 kPa, x1 = 0.8992	660.81
397.27 K, 14860 kPa, x1 = 0.801	656.72
397.27 K, 19840 kPa, x1 = 0.801	665.54
397.27 K, 19860 kPa, x1 = 0.611	646.79
397.27 K, 24850 kPa, x1 = 0.611	654.54
397.27 K, 24870 kPa, x1 = 0.801	673.51
397.27 K, 24950 kPa, x1 = 0.4	687.4
397.27 K, 24950 kPa, x1 = 0.8992	687.4
397.27 K, 29850 kPa, x1 = 0.611	661.6
397.27 K, 34860 kPa, x1 = 0.801	687.43
397.27 K, 34870 kPa, x1 = 0.611	668.12
397.27 K, 34940 kPa, x1 = 0.4	701.35
397.27 K, 34940 kPa, x1 = 0.8992	701.35
397.27 K, 39870 kPa, x1 = 0.611	674.11
397.27 K, 39930 kPa, x1 = 0.4	707.57
397.27 K, 39930 kPa, x1 = 0.8992	707.57
397.27 K, 44850 kPa, x1 = 0.801	699.35
397.27 K, 44870 kPa, x1 = 0.611	679.73
397.27 K, 49850 kPa, x1 = 0.611	684.97
397.27 K, 49850 kPa, x1 = 0.801	704.77
397.27 K, 54850 kPa, x1 = 0.611	689.91
397.27 K, 54860 kPa, x1 = 0.801	709.87
397.27 K, 59840 kPa, x1 = 0.611	694.59
397.27 K, 64820 kPa, x1 = 0.801	719.28
397.27 K, 64860 kPa, x1 = 0.4	733.56
397.27 K, 64860 kPa, x1 = 0.8992	733.56
397.27 K, 69920 kPa, x1 = 0.611	703.34
397.27 K, 69920 kPa, x1 = 0.801	723.77
397.27 K, 79800 kPa, x1 = 0.4	746.33
397.27 K, 79800 kPa, x1 = 0.8992	746.33
397.27 K, 79900 kPa, x1 = 0.801	731.97
397.27 K, 79910 kPa, x1 = 0.611	711.27
397.27 K, 84880 kPa, x1 = 0.611	715
397.27 K, 84880 kPa, x1 = 0.801	735.83
397.27 K, 89870 kPa, x1 = 0.611	718.57
397.27 K, 89870 kPa, x1 = 0.801	739.53
397.27 K, 94750 kPa, x1 = 0.4	757.72
397.27 K, 94750 kPa, x1 = 0.8992	757.72
397.27 K, 94840 kPa, x1 = 0.801	743.11
397.27 K, 94850 kPa, x1 = 0.611	722.01
397.27 K, 99720 kPa, x1 = 0.4	761.24
397.27 K, 99720 kPa, x1 = 0.8992	761.24
397.27 K, 99830 kPa, x1 = 0.611	725.33
397.27 K, 104800 kPa, x1 = 0.611	728.56
397.27 K, 104800 kPa, x1 = 0.801	749.91
397.27 K, 109770 kPa, x1 = 0.611	731.66
397.27 K, 119830 kPa, x1 = 0.801	759.4
397.27 K, 124560 kPa, x1 = 0.4	777.29
397.27 K, 124560 kPa, x1 = 0.8992	777.29
397.27 K, 129820 kPa, x1 = 0.4	780.45
397.27 K, 129820 kPa, x1 = 0.8992	780.45
397.27 K, 129840 kPa, x1 = 0.801	765.29
397.28 K, 1470 kPa, x1 = 0.7024	615.75
397.28 K, 1500 kPa, x1 = 0.492	600.98
397.28 K, 4850 kPa, x1 = 0.7024	624.89
397.28 K, 4860 kPa, x1 = 0.492	609.77
397.28 K, 9830 kPa, x1 = 0.7024	636.41
397.28 K, 9850 kPa, x1 = 0.492	620.92
397.28 K, 14840 kPa, x1 = 0.7024	646.37
397.28 K, 14860 kPa, x1 = 0.492	630.52
397.28 K, 19840 kPa, x1 = 0.7024	655.11
397.28 K, 24820 kPa, x1 = 0.7024	662.95
397.28 K, 29820 kPa, x1 = 0.7024	670.12
397.28 K, 29840 kPa, x1 = 0.492	653.43
397.28 K, 29860 kPa, x1 = 0.801	680.72
397.28 K, 34830 kPa, x1 = 0.7024	676.7
397.28 K, 34860 kPa, x1 = 0.492	659.77
397.28 K, 39840 kPa, x1 = 0.7024	682.81
397.28 K, 39850 kPa, x1 = 0.801	693.57
397.28 K, 44820 kPa, x1 = 0.7024	688.48
397.28 K, 44860 kPa, x1 = 0.492	671.15
397.28 K, 49810 kPa, x1 = 0.7024	693.79
397.28 K, 54840 kPa, x1 = 0.492	681.14
397.28 K, 54910 kPa, x1 = 0.7024	698.93
397.28 K, 59840 kPa, x1 = 0.492	685.74
397.28 K, 59850 kPa, x1 = 0.801	714.7
397.28 K, 59860 kPa, x1 = 0.7024	703.65
397.28 K, 64820 kPa, x1 = 0.492	690.08
